Measurements: patent publication US20260193271A1, “PAN-KRAS INHIBITOR COMPOUND” (ADLAI NORTYE BIOPHARMA CO., LTD., priority 2022, published 2026)

What was measured:
AsPC-1 (G12D) = assay: In vitro cell proliferation inhibition test (CellTiter-Glo), AsPC-1; type: cell-based; conditions: KRAS (p.G12D), 72 h co-incubation
Procedure, shortened: (§1)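 Cells were seeded at 1000-5000/well by doubling time and cultured overnight at 37 °C, 5% CO2. They were then exposed for 72 h to 10-point, 3-fold compound dilutions (final top 10 μM), and viability was read by CellTiter-Glo luminescence. IC50 came from normalized signals fitted by four-parameter regression.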

SW480 (G12V) = assay: In vitro cell proliferation inhibition test (CellTiter-Glo), SW480; type: cell-based; conditions: SW480 colon cell line, KRAS (p.G12V), 72 h co-incubation
Procedure, shortened: as §1

[1] = Homo sapiens, ASPC1, AsPC-1 pancreas cell line

IC50 (AsPC-1 (G12D); [1]) [nM] | IC50 (SW480 (G12V); Homo sapiens) [nM] | IC50 (AsPC-1 (G12D); AsPC-1 pancreas cell line) [nM] | IC50 (SW480 (G12V)) [nM] | Compound
10 | 3.4 | – | – | CCn1c(-c2cc(-c3cnc(CN4CCOCC4)nc3)cnc2[C@H](C)OC)c2c3cc(ccc31)-c1csc(n1)C[C@H](NC(=O)[C@H]1C[C@@H]1C)C(=O)N1CCC[C@H](N1)C(=O)OCC(C)(C)C2 (atropisomer, axis not shown) [Compound 66, (1S,2S)-N-((6^3S,4S,Z)-1^1-ethyl-1^2-(2-((S)-1-methoxyethyl)-5-(2-(morpholinomethyl)pyrimidin-5-yl)pyridin-3-yl)-10,10-dimethyl-5,7-dioxo-6^1,6^2,6^3,6^4,6^5,6^6-hexahydro-1H-8-oxa-2(4,2)-thiazola-1(5,3)-indola-6(1,3)-pyridazinacycloundecaphane-4-yl)-2-methylcyclopropane-1-carboxamide]
3 | 3.5 | – | – | CCn1c(-c2cc(-c3cncc(CN4CCS(=N)(=O)CC4)c3)cnc2[C@H](C)OC)c2c3cc(ccc31)-c1csc(n1)C[C@H](NC(=O)[C@H]1[C@H](C)[C@@H]1C)C(=O)N1CCC[C@H](N1)C(=O)OCC(C)(C)C2 (atropisomer, axis not shown) [Compound 42, (1r,2R,3S)-N-((6^3S,4S,Z)-1^1-ethyl-1^2-(5′-((1-imino-1-oxido-16-thiomorpholino)methyl)-6-((S)-1-methoxyethyl)-[3,3′-bipyridin]-5-yl)-10,10-dimethyl-5,7-dioxo-6^1,6^2,6^3,6^4,6^5,6^6-hexahydro-1^1H-8-oxa-2(4,2)-thiazola-1(5,3)-indola-6(1,3)-pyridazinacycloundecaphane-4-yl)-2,3-dimethylcyclopropane-1-carboxamide]
3 | 6 | – | – | CCn1c(-c2cc(-c3cnn(CCN4CCOCC4)c3)cnc2[C@H](C)OC)c2c3cc(ccc31)-c1csc(n1)C[C@H](NC(=O)[C@H]1C[C@@H]1C)C(=O)N1CCC[C@H](N1)C(=O)OCC(C)(C)C2 (atropisomer, axis not shown) [Compound 15, (1S,2S)-N-((6^3S,4S,Z)-1^1-ethyl-1^2-(2-((S)-1-methoxyethyl)-5-(1-(2-morpholinoethyl)-1H-pyrazol-4-yl)pyridin-3-yl)-10,10-dimethyl-5,7-dioxo-6^1,6^2,6^3,6^4,6^5,6^6-hexahydro-1^1H-8-oxa-2(4,2)-thiazola-1(5,3)-indola-6(1,3)-pyridazinacycloundecaphane-4-yl)-2-methylcyclopropane-1-carboxamide]
13 | 23 | – | – | CCn1c(-c2cc(-c3ccc(CN4CC[C@@H](F)C4)cc3)cnc2[C@H](C)OC)c2c3cc(ccc31)-c1csc(n1)C[C@H](NC(=O)[C@H]1C[C@@H]1C)C(=O)N1CCC[C@H](N1)C(=O)OCC(C)(C)C2 (atropisomer, axis not shown) [Compound 6, (1S,2S)-N-((6^3S,4S,Z)-1^1-ethyl-1^2-(5-(4-(((R)-3-fluoropyrrolidin-1-yl)methyl)phenyl)-2-((S)-1-methoxyethyl)pyridin-3-yl)-10,10-dimethyl-5,7-dioxo-6^1,6^2,6^3,6^4,6^5,6^6-hexahydro-1^1H-8-oxa-2(4,2)-thiazola-1(5,3)-indola-6(1,3)-pyridazinacycloundecaphane-4-yl)-2-methylcyclopropane-1-carboxamide]
– | – | 3420 | > 10000 | CCn1c(-c2cc(-c3cc([C@@H]4CCCN4C)on3)cnc2[C@H](C)OC)c2c3cc(ccc31)-c1csc(n1)C[C@H](NC(=O)[C@H]1C[C@@H]1C)C(=O)N1CCC[C@H](N1)C(=O)OCC(C)(C)C2 [Compound 25′, (1S,2S)-N-((6^3S,4S,Z)-1^1-ethyl-1^2-(2-((S)-1-methoxyethyl)-5-(5-((S)-1-methylpyrrolidin-2-yl)isoxazol-3-yl)pyridin-3-yl)-10,10-dimethyl-5,7-dioxo-6^1,6^2,6^3,6^4,6^5,6^6-hexahydro-1^1H-8-oxa-2(4,2)-thiazola-1(5,3)-indola-6(1,3)-pyridazinacycloundecaphane-4-yl)-2-methylcyclopropane-1-carboxamide]
0.9 | 1.8 | – | – | CCn1c(-c2cc(-c3cncc(CN4CCS(=O)(=O)CC4)c3)cnc2[C@H](C)OC)c2c3cc(ccc31)-c1csc(n1)C[C@H](NC(=O)[C@H]1[C@H](C)[C@@H]1C)C(=O)N1CCC[C@H](N1)C(=O)OCC(C)(C)C2 (atropisomer, axis not shown) [Compound 37, (1r,2R,3S)-N-((6^3S,4S,Z)-12-(5′-((1,1-dioxidothiomorpholino)methyl)-6-((S)-1-methoxyethyl)-[3,3′-bipyridin]-5-yl)-1^1-ethyl-10,10-dimethyl-5,7-dioxo-6^1,6^2,6^3,6^4,6^5,6^6-hexahydro-1^1H-8-oxa-2(4,2)-thiazola-1(5,3)-indola-6(1,3)-pyridazinacycloundecaphane-4-yl)-2,3-dimethylcyclopropane-1-carboxamide]
3 | 6.2 | – | – | CCn1c(-c2cc(-c3cnc(N(C)C)nc3)cnc2[C@H](C)OC)c2c3cc(ccc31)-c1csc(n1)C[C@H](NC(=O)[C@H]1C[C@@H]1C)C(=O)N1CCC[C@H](N1)C(=O)OCC(C)(C)C2 (atropisomer, axis not shown) [Compound 59, (1S,2S)-N-((6^3S,4S,Z)-1^2-(5-(2-(dimethylamino)pyrimidin-5-yl)-2-((S)-1-methoxyethyl)pyridin-3-yl)-1^1-ethyl-10,10-dimethyl-5,7-dioxo-6^1,6^2,6^3,6^4,6^5,6^6-hexahydro-1^1H-8-oxa-2(4,2)-thiazola-1(5,3)-indola-6(1,3)-pyridazinacycloundecaphane-4-yl)-2-methylcyclopropane-1-carboxamide]
0.7 | 1.4 | – | – | CCn1c(-c2cc(-c3ccc(CN4CCN(C)CC4)cc3)cnc2[C@H](C)OC)c2c3cc(ccc31)-c1csc(n1)C[C@H](NC(=O)[C@H]1C[C@@H]1C)C(=O)N1CCC[C@H](N1)C(=O)OCC(C)(C)C2 (atropisomer, axis not shown) [Compound 8, (1S,2S)-N-((6^3S,4S,Z)-1^1-ethyl-1^2-(2-((S)-1-methoxyethyl)-5-(4-((4-methylpiperazin-1-yl)methyl)phenyl)pyridin-3-yl)-10,10-dimethyl-5,7-dioxo-6^1,6^2,6^3,6^4,6^5,6^6-hexahydro-1^1H-8-oxa-2(4,2)-thiazola-1(5,3)-indola-6(1,3)-pyridazinacycloundecaphane-4-yl)-2-methylcyclopropane-1-carboxamide]
– | – | 1180 | 633 | (1S,2S)-N-((6^3S,4S,Z)-1^1-ethyl-1^2-(2-((S)-1-methoxyethyl)-5-(5-(morpholinomethyl)pyrimidin-2-yl)pyridin-3-yl)-10,10-dimethyl-5,7-dioxo-6^1,6^2,6^3,6^4,6^5,6^6-hexahydro-1^1H-8-oxa-2(4,2)-thiazola-1(5,3)-indola-6(1,3)-pyridazinacycloundecaphane-4-yl)-2-methylcyclopropane-1-carboxamide [Compound 14′]
– | – | 302 | 236 | (1S,2S)-N-((6^3S,4S,Z)-1^1-ethyl-1^2-(6′-((S)-1-methoxyethyl)-6-(morpholinomethyl)-[2,3′-bipyridin]-5′-yl)-10,10-dimethyl-5,7-dioxo-6^1,6^2,6^3,6^4,6^5,6^6-hexahydro-1^1H-8-oxa-2(4,2)-thiazola-1(5,3)-indola-6(1,3)-pyridazinacycloundecaphane-4-yl)-2-methylcyclopropane-1-carboxamide [Compound 13′]
– | – | 7.7 | 50 | CCn1c(-c2cc(-c3cc(C4CN(C)CCO4)on3)cnc2C(C)OC)c2c3cc(ccc31)-c1csc(n1)CC(NC(=O)C1C(C)C1C)C(=O)N1CCCC(N1)C(=O)OCC(C)(C)C2 [Compound 27′, (1r,2R,3S)-N-((6^3S,4S,Z)-1^1-ethyl-1^2-(2-((S)-1-methoxyethyl)-5-(5-((S)-4-methylmorpholin-2-yl)isoxazol-3-yl)pyridin-3-yl)-10,10-dimethyl-5,7-dioxo-6^1,6^2,6^3,6^4,6^5,6^6-hexahydro-1^1H-8-oxa-2(4,2)-thiazola-1(5,3)-indola-6(1,3)-pyridazinacycloundecaphane-4-yl)-2,3-dimethylcyclopropane-1-carboxamide]
10 | 2.5 | – | – | CCn1c(-c2cc(-c3cc([C@H]4CN(C)CCO4)on3)cnc2[C@H](C)OC)c2c3cc(ccc31)-c1csc(n1)C[C@H](NC(=O)[C@H]1[C@H](C)[C@@H]1C)C(=O)N1CCC[C@H](N1)C(=O)OCC(C)(C)C2 (atropisomer, axis not shown) [Compound 26, (1r,2R,3S)-N-((6^3S,4S,Z)-1^1-ethyl-1^2-(2-((S)-1-methoxyethyl)-5-(5-((R)-4-methylmorpholin-2-yl)isoxazol-3-yl)pyridin-3-yl)-10,10-dimethyl-5,7-dioxo-6^1,6^2,6^3,6^4,6^5,6^6-hexahydro-1^1H-8-oxa-2(4,2)-thiazola-1(5,3)-indola-6(1,3)-pyridazinacycloundecaphane-4-yl)-2,3-dimethylcyclopropane-1-carboxamide]
0.45 | 1.4 | – | – | CCn1c(-c2cc(-c3cnn(C4CCN(C)CC4)c3)cnc2[C@H](C)OC)c2c3cc(ccc31)-c1csc(n1)C[C@H](NC(=O)[C@H]1[C@H](C)[C@@H]1C)C(=O)N1CCC[C@H](N1)C(=O)OCC(C)(C)C2 (atropisomer, axis not shown) [Compound 18, (1r,2R,3S)-N-((6^3S,4S,Z)-1^1-ethyl-1^2-(2-((S)-1-methoxyethyl)-5-(1-(1-methylpiperidin-4-yl)-1H-pyrazol-4-yl)pyridin-3-yl)-10,10-dimethyl-5,7-dioxo-6^1,6^2,6^3,6^4,6^5,6^6-hexahydro-1^1H-8-oxa-2(4,2)-thiazola-1(5,3)-indola-6(1,3)-pyridazinacycloundecaphane-4-yl)-2,3-dimethylcyclopropane-1-carboxamide]
